Assay: Release of corticosteroid from drug-containing in-situ crosslinked sodium hyaluronate hydrogel into phosphate buffer solution
Format: physicochemical
Details: for cumulative releasing percentage of the drug: 0.2 mL gel in 10 mL phosphate buffer solution, 37° C., 100 rpm, UV absorption of supernatant; for release of the drug from the gel (in words): summary of the release table
Protocol: Into the 10 mL thiolated sodium hyaluronate solution prepared in Example 1 (pH 7.0, 1.0% w/v), 0.1-10 mg one type of corticosteroid (e.g. Beclomethasone, Beclomethasone dipropionate, Budesonide; Dexamethasone, Prednisolone or Prednisone) was added. The solution was mix uniformly and immediately filled into a 1 mL syringe which was then sealed and kept at room temperature. It was observed after one week that the solution sealed in the syringe had lost fluidity to form a gel.
0.2 mL gel containing drug as described above was filled into a 15 mL plastic centrifugal tube; 10 mL phosphate buffer solution was added into the centrifugal tube which was then put in an incubator (37° C., 100 rpm); ultraviolet absorption of the drug in the supernatant was recorded at a certain time interval.
The cumulative releasing percentages of the drug at different times are as below: […]

| cumulative releasing percentage of the drug (day 7) [%] | cumulative releasing percentage of the drug (day 14) [%] | cumulative releasing percentage of the drug (day 21) [%] | SMILES | release of the drug from the gel (in words) |
| --- | --- | --- | --- | --- |
| 61 | 82 | 91 | C[C@H]1C[C@H]2[C@@H]3CCC4=CC(=O)C=C[C@]4(C)[C@@]3(Cl)[C@@H](O)C[C@]2(C)[C@@]1(O)C(=O)CO [Beclomethasone] |  |
| <1 | <1 | <1 | CCC(=O)OCC(=O)[C@@]1(OC(=O)CC)[C@@H](C)C[C@H]2[C@@H]3CCC4=CC(=O)C=C[C@]4(C)[C@@]3(Cl)[C@@H](O)C[C@@]21C [Beclomethasone dipropionate] | release was rarely detected |
| 95 | 100 | 100 | C[C@]12C=CC(=O)C=C1CC[C@@H]1[C@@H]2[C@@H](O)C[C@@]2(C)[C@H]1CC[C@]2(O)C(=O)CO [Prednisolone] | released substantially completely in 7 days |
| 82 | 95 | 100 | C[C@]12C=CC(=O)C=C1CC[C@@H]1[C@@H]2C(=O)C[C@@]2(C)[C@H]1CC[C@]2(O)C(=O)CO [Prednisone] |  |

— patent US9220676B2, “Injectable in-situ crosslinked hydrogel and methods of making and using thereof” (Bioregen Biomedical (Changzhou) Co., Ltd., priority 2008, dated 2015)
